According to US11666658B2, “Rifamycin analogs and antibody-drug conjugates thereof” (Regeneron Pharmaceuticals, Inc., priority 2018, dated 2023):
Converted amounts (≈) assume the structure as drawn. Where two headings read alike, the source gives them in different places.

Columns and labels:
[1] = tested on: intracellular S. aureus NRS384 in THP-1 macrophages; assay: Intracellular killing assay 2 (rifamycin analogs, S. aureus in THP-1 macrophages); assay type: cell-based, Staphylococcus aureus; conditions: for MIC: Staphylococcus aureus, NRS384, 2 h, read-out: S. aureus Intracellular killing MIC
Description: THP-1 monocytic cell line was grown in media (RMPI+10% FBS+1% Penicillin/Streptomycin), then seeded at a density of 1e5 cells/well in a 96 well plate and differentiated into macrophages for three days prior to infection using 200 nM PMA. An overnight culture of S. aureus NRS384 was grown in RPMI, washed twice with PBS and resuspended at 1e7 cfu/mL in PBS. THP-1 were washed with warm media (RMPI without FBS) to remove the Penicillin/Streptomycin and then infected with the S. aureus suspension at a multiplicity of infection of 10:1 (S. aureus: macrophages). Plates were spun at 300×g for 5 minutes to synchronize adhesion of the bacteria, then incubated at 37° C. for 2 hours. Free-floating bacteria were removed by washing 2× with warm media and remaining extracellular S. aureus were killed by addition of media containing gentamicin (50 ug/mL). […] The compounds were added in media containing 50 µg/mL gentamicin to prevent extracellular growth of S. aureus. After 2 hours, plates were washed 2× with warm RPMI without FBS, and 100 ul of THP-1 lysis buffer (0.1% Triton in PBS) was added to each well. S. aureus survival was enumerated by colony forming units through serial dilution and plating onto TSA.
The intracellular MIC value indicated represents the median value of at least two independent experiments, unless indicated otherwise.

[2] = tested on: S. aureus NRS384; assay: Broth minimum inhibitory concentration (MIC) assay 2; assay type: cell-based, Staphylococcus aureus; conditions: for MIC: Staphylococcus aureus, read-out: S. aureus Broth MIC
Description: To test the potency of rifamycin analogs of the disclosure in vitro, a broth growth inhibition assay was developed. For the assay, S. aureus NRS384 was grown in Tryptic Soy Broth (TSB) overnight, then sub-cultured 1:50 in fresh TSB and grown for an additional two hours. The culture was then pelleted via centrifugation and washed twice in PBS. The culture was then diluted to 1×10^6 cfu/mL in TSB and 100 μL of the suspension was added per well to a 2 mL dilution plate in triplicate. […] The plates were sealed and incubated at 37° C. with shaking for 24 hours, then 150 μL of each sample was added to 96 well microtiter plates and the OD600 nm was read on a Spectramax i3 Minimax 300.
The broth MIC experiments were assessed in at least two independent experiments and the median value is captured below unless indicated otherwise.

[3] = lowest concentration giving intracellular S. aureus below limit of detection (50 cfu/mL) in THP-1 macrophages, median of at least two experiments
[4] = S. aureus NRS384 in TSB, 24 hours at 37° C., OD600, median of at least two independent experiments

CO[C@H]1/C=C/O[C@@]2(C)Oc3c(C)c(O)c4c(=O)c(c5oc6cc(OCCNC(C)=O)cc(O)c6nc-5c4c3C2=O)NC(=O)/C(C)=C\C=C\[C@H](C)[C@H](O)[C@@H](C)[C@@H](O)[C@@H](C)[C@H](OC(C)=O)[C@@H]1C [Analog 29i]
MIC [1, 3]: 0.2 µM (≈ 0.18 µg/mL) | MIC [2, 4]: 0.00244 µM (≈ 0.0022 µg/mL)

CO[C@H]1/C=C/O[C@@]2(C)Oc3c(C)c(O)c4c(=O)c(c5oc6cc(OCc7ccccc7CN(C)C)ccc6nc-5c4c3C2=O)NC(=O)/C(C)=C\C=C\[C@H](C)[C@H](O)[C@@H](C)[C@@H](O)[C@@H](C)[C@H](OC(C)=O)[C@@H]1C [Analog 16w]
MIC [1, 3]: > 1 µM | MIC [2, 4]: 0.0625 µM (≈ 0.0593 µg/mL)

CO[C@H]1/C=C/O[C@@]2(C)Oc3c(C)c(O)c4c(=O)c(c5oc6cc(OCCNCCOCCN7CC7)ccc6nc-5c4c3C2=O)NC(=O)/C(C)=C\C=C\[C@H](C)[C@H](O)[C@@H](C)[C@@H](O)[C@@H](C)[C@H](OC(C)=O)[C@@H]1C [Analog 16r]
MIC [1]: 1 µM (≈ 0.957 µg/mL) | MIC ([2]; NRS384, 24 h): 0.0156 µM (≈ 0.0149 µg/mL)

CO[C@H]1/C=C/O[C@@]2(C)Oc3c(C)c(O)c4c(=O)c(c5oc6cc(OCCN7CCOCC7)cc(O)c6nc-5c4c3C2=O)NC(=O)/C(C)=C\C=C\[C@H](C)[C@H](O)[C@@H](C)[C@@H](O)[C@@H](C)[C@H](OC(C)=O)[C@@H]1C [Analog 29g]
MIC [1, 3]: 0.2 µM (≈ 0.186 µg/mL) | MIC [2, 4]: 0.00391 µM (≈ 0.00364 µg/mL)

CO[C@H]1/C=C/O[C@@]2(C)Oc3c(C)c(O)c4c(=O)c(c5oc6cc(OCCN7CCCC7)cc(O)c6nc-5c4c3C2=O)NC(=O)/C(C)=C\C=C\[C@H](C)[C@H](O)[C@@H](C)[C@@H](O)[C@@H](C)[C@H](OC(C)=O)[C@@H]1C [Analog 29c]
MIC [1, 3]: 0.04 µM (≈ 0.0366 µg/mL) | MIC [2, 4]: 0.00391 µM (≈ 0.00357 µg/mL)

CO[C@H]1/C=C/O[C@@]2(C)Oc3c(C)c(O)c4c(=O)c(c5oc6cc(OCCN(C)C)cc(O)c6nc-5c4c3C2=O)NC(=O)/C(C)=C\C=C\[C@H](C)[C@H](O)[C@@H](C)[C@@H](O)[C@@H](C)[C@H](OC(C)=O)[C@@H]1C [Analog 29]
MIC [1, 3]: 0.04 µM (≈ 0.0355 µg/mL) | MIC [2, 4]: 0.00391 µM (≈ 0.00347 µg/mL)

CO[C@H]1/C=C/O[C@@]2(C)Oc3c(C)c(O)c4c(=O)c(c5oc6cc(OCCN7CC8CCC7C8)ccc6nc-5c4c3C2=O)NC(=O)/C(C)=C\C=C\[C@H](C)[C@H](O)[C@@H](C)[C@@H](O)[C@@H](C)[C@H](OC(C)=O)[C@@H]1C [Analog 16q]
MIC [1, 3]: 1 µM (≈ 0.924 µg/mL) | MIC [2, 4]: 0.00391 µM (≈ 0.00361 µg/mL)

CO[C@H]1/C=C/O[C@@]2(C)Oc3c(C)c(O)c4c(=O)c(c5oc6cc(OCCN(C)C(C)=O)ccc6nc-5c4c3C2=O)NC(=O)/C(C)=C\C=C\[C@H](C)[C@H](O)[C@@H](C)[C@@H](O)[C@@H](C)[C@H](OC(C)=O)[C@@H]1C [Analog 16z]
MIC [1, 3]: > 1 µM | MIC [2, 4]: 0.00391 µM (≈ 0.00352 µg/mL)

CO[C@H]1/C=C/O[C@@]2(C)Oc3c(C)c(O)c4c(=O)c(c5oc6cc(OCC7CCN(C)C7)cc(O)c6nc-5c4c3C2=O)NC(=O)/C(C)=C\C=C\[C@H](C)[C@H](O)[C@@H](C)[C@@H](O)[C@@H](C)[C@H](OC(C)=O)[C@@H]1C (some centres unmarked) [Analog 29a]
MIC [1, 3]: 0.04 µM (≈ 0.0366 µg/mL) | MIC [2, 4]: 0.00391 µM (≈ 0.00357 µg/mL)

CO[C@H]1/C=C/O[C@@]2(C)Oc3c(C)c(O)c4c(=O)c(c5oc6cc(OCCCN(C)C)ccc6nc-5c4c3C2=O)NC(=O)/C(C)=C\C=C\[C@H](C)[C@H](O)[C@@H](C)[C@@H](O)[C@@H](C)[C@H](OC(C)=O)[C@@H]1C [Analog 16o]
MIC [1, 3]: 0.2 µM (≈ 0.177 µg/mL) | MIC [2, 4]: 0.00391 µM (≈ 0.00346 µg/mL)

COc1cc(OCCN(C)C)cc2oc3c4c(=O)c5c(O)c(C)c6c(c5c-3nc12)C(=O)[C@@](C)(O/C=C/[C@H](OC)[C@@H](C)[C@@H](OC(C)=O)[C@H](C)[C@H](O)[C@H](C)[C@@H](O)[C@@H](C)/C=C/C=C(/C)C(=O)N4)O6 [Analog 43]
MIC [1, 3]: 0.04 µM (≈ 0.0361 µg/mL) | MIC [2, 4]: 0.00391 µM (≈ 0.00353 µg/mL)

CO[C@H]1/C=C/O[C@@]2(C)Oc3c(C)c(O)c4c(=O)c(c5oc6cc(OCCNC(C)=O)ccc6nc-5c4c3C2=O)NC(=O)/C(C)=C\C=C\[C@H](C)[C@H](O)[C@@H](C)[C@@H](O)[C@@H](C)[C@H](OC(C)=O)[C@@H]1C [Analog 16x]
MIC [1, 3]: > 1 µM | MIC [2, 4]: 0.000977 µM (≈ 0.000866 µg/mL)

CO[C@H]1/C=C/O[C@@]2(C)Oc3c(C)c(O)c4c(=O)c(c5oc6cc(OCC7CCN(C)CC7)cc(O)c6nc-5c4c3C2=O)NC(=O)/C(C)=C\C=C\[C@H](C)[C@H](O)[C@@H](C)[C@@H](O)[C@@H](C)[C@H](OC(C)=O)[C@@H]1C [Analog 29b]
MIC [1, 3]: 0.04 µM (≈ 0.0371 µg/mL) | MIC [2, 4]: 0.00391 µM (≈ 0.00363 µg/mL)

CO[C@H]1/C=C/O[C@@]2(C)Oc3c(C)c(O)c4c(=O)c(c5oc6cc(OCC7CCCN(C)C7)ccc6nc-5c4c3C2=O)NC(=O)/C(C)=C\C=C\[C@H](C)[C@H](O)[C@@H](C)[C@@H](O)[C@@H](C)[C@H](OC(C)=O)[C@@H]1C (some centres unmarked) [Analog 16f]
MIC [1, 3]: 1 µM (≈ 0.912 µg/mL) | MIC [2, 4]: 0.0156 µM (≈ 0.0142 µg/mL)

CO[C@H]1/C=C/O[C@@]2(C)Oc3c(C)c(O)c4c(=O)c(c5oc6cc(OCCCCN(C)C)ccc6nc-5c4c3C2=O)NC(=O)/C(C)=C\C=C\[C@H](C)[C@H](O)[C@@H](C)[C@@H](O)[C@@H](C)[C@H](OC(C)=O)[C@@H]1C [Analog 16p]
MIC [1, 3]: 1 µM (≈ 0.9 µg/mL) | MIC [2, 4]: 0.0156 µM (≈ 0.014 µg/mL)

CO[C@H]1/C=C/O[C@@]2(C)Oc3c(C)c(O)c4c(=O)c(c5oc6cc(OCCN(C)C)cc(F)c6nc-5c4c3C2=O)NC(=O)/C(C)=C\C=C\[C@H](C)[C@H](O)[C@@H](C)[C@@H](O)[C@@H](C)[C@H](OC(C)=O)[C@@H]1C [Analog 55]
MIC [1, 3]: 0.2 µM (≈ 0.178 µg/mL) | MIC [2, 4]: 0.0156 µM (≈ 0.0139 µg/mL)

CO[C@H]1/C=C/O[C@@]2(C)Oc3c(C)c(O)c4c(=O)c(c5oc6cc(OCCNCCN)ccc6nc-5c4c3C2=O)NC(=O)/C(C)=C\C=C\[C@H](C)[C@H](O)[C@@H](C)[C@@H](O)[C@@H](C)[C@H](OC(C)=O)[C@@H]1C [Analog 35]
MIC [1, 3]: > 1 µM | MIC [2, 4]: 0.25 µM (≈ 0.222 µg/mL)

CO[C@H]1/C=C/O[C@@]2(C)Oc3c(C)c(O)c4c(=O)c(c5oc6cc(OCCN7CCOCC7)ccc6nc-5c4c3C2=O)NC(=O)/C(C)=C\C=C\[C@H](C)[C@H](O)[C@@H](C)[C@@H](O)[C@@H](C)[C@H](OC(C)=O)[C@@H]1C [Analog 16i]
MIC [1, 3]: 1 µM (≈ 0.914 µg/mL) | MIC [2, 4]: 0.0156 µM (≈ 0.0143 µg/mL)

CO[C@H]1/C=C/O[C@@]2(C)Oc3c(C)c(O)c4c(=O)c(c5oc6cccc(O)c6nc-5c4c3C2=O)NCC(=O)/C(C)=C\C=C\[C@H](C)[C@H](O)[C@@H](C)[C@@H](O)[C@@H](C)[C@H](OC(C)=O)[C@@H]1C [Analog P1]
S. aureus Intracellular killing MIC [1, 3]: 0.2 µM | S. aureus Broth MIC [2, 4]: 0.0625 µM

CO[C@H]1/C=C/O[C@@]2(C)Oc3c(C)c(O)c4c(=O)c(c5oc6cc(OCCN7CCN(C)CC7)cc(O)c6nc-5c4c3C2=O)NC(=O)/C(C)=C\C=C\[C@H](C)[C@H](O)[C@@H](C)[C@@H](O)[C@@H](C)[C@H](OC(C)=O)[C@@H]1C [Analog 29e]
MIC [1, 3]: 0.04 µM (≈ 0.0377 µg/mL) | MIC [2, 4]: 0.0156 µM (≈ 0.0147 µg/mL)

CO[C@H]1/C=C/O[C@@]2(C)Oc3c(C)c(O)c4c(=O)c(c5oc6cc(OCCOCCN(C)C)cc(O)c6nc-5c4c3C2=O)NC(=O)/C(C)=C\C=C\[C@H](C)[C@H](O)[C@@H](C)[C@@H](O)[C@@H](C)[C@H](OC(C)=O)[C@@H]1C [Analog 29f]
MIC [1, 3]: 0.2 µM (≈ 0.186 µg/mL) | MIC [2, 4]: 0.0156 µM (≈ 0.0145 µg/mL)

CO[C@H]1/C=C/O[C@@]2(C)Oc3c(C)c(O)c4c(=O)c(c5oc6cc(N7CCC(N(C)C)CC7)cc(O)c6nc-5c4c3C2=O)NC(=O)/C(C)=C\C=C\[C@H](C)[C@H](O)[C@@H](C)[C@@H](O)[C@@H](C)[C@H](OC(C)=O)[C@@H]1C [Rifalog, reference compound]
MIC [2, 4]: 0.000977 µM (≈ 0.000906 µg/mL)

CO[C@H]1/C=C/O[C@@]2(C)Oc3c(C)c(O)c4c(=O)c(c5oc6cc(F)ccc6nc-5c4c3C2=O)NCC(=O)/C(C)=C\C=C\[C@H](C)[C@H](O)[C@@H](C)[C@@H](O)[C@@H](C)[C@H](OC(C)=O)[C@@H]1C [Analog P3]
S. aureus Broth MIC [2, 4]: 0.0156 µM
